These results are taken from ChEMBL document CHEMBL2086360, “α-Glucosidase inhibitory hydrolyzable tannins from Eugenia jambolana seeds” (J Nat Prod, 2012).

This experiment in a line: Inhibition of yeast alpha-glucosidase using p-nitrophenyl-alpha-D-glucopyranoside as substrate compound pre-incubated for 10 mins before substrate addition measured after 5 mins by microplate reader. Further details: species or system Saccharomyces cerevisiae.

Compound `O=C(O[C@H]1[C@H](O)[C@@H](CO)OC(O)[C@@H]1OC(=O)c1cc(O)c(O)c(O)c1Oc1c(O)cc2c(=O)oc3c(O)c(O)cc4c(=O)oc1c2c34)c1cc(O)c(O)c(O)c1` (mixture of isomers) had an IC50 of 8.2 µM.

On to `C[C@H]1O[C@H](O[C@H]2[C@H](O)[C@@H](O)[C@@H](O[C@H]3[C@H](O)[C@@H](O)C(O)O[C@@H]3CO)O[C@@H]2CO)[C@H](O)[C@@H](O)[C@@H]1N[C@H]1C=C(CO)[C@@H](O)[C@H](O)[C@H]1O` (stereo not given in full) [ACARBOSE], for which the IC50 turned out to be 209 µM.

Compound `O=C(O[C@H]1[C@@H]2OC(=O)c3cc(O)c(O)c(O)c3-c3c(cc(O)c(O)c3O)C(=O)OC[C@H]2OC(O)[C@@H]1OC(=O)c1cc(O)c(O)c(O)c1Oc1cc2c(=O)oc3c(O)c(O)cc4oc(=O)c(c1O)c2c43)c1cc(O)c(O)c(O)c1` (stereo not given in full) [CORNUSSIN B] gave an IC50 of 12.2 µM. This IC50 lies about 17-fold lower than the previous one.

Take `O=C(O[C@H]1[C@H](O)[C@@H](CO)OC(O)[C@@H]1OC(=O)c1cc(O)c(O)c(O)c1Oc1cc2c(=O)oc3c(O)c(O)cc4c(=O)oc(c1O)c2c34)c1cc(O)c(O)c(O)c1` (stereo not given in full) [OENOTHEIN C]: half-maximal inhibition (IC50) was put at 75.1 µM.

`COc1cc2oc(-c3ccc(O)cc3)cc(=O)c2c(O)c1[C@@H]1O[C@H](CO)[C@@H](O)[C@H](O)[C@H]1O` [SWERTISIN] yielded an IC50 of 146 µM.

What is called IC50 is the concentration that gives 50% inhibition. A lower IC50 goes with greater potency.
